Data on five compounds can be found in PMC4396983 (Bioorganic & medicinal chemistry, 2015).

The target of experiment [1] is T1, human recombinant LSD1 (Homo sapiens, UniProt O60341). Description: Recombinant LSD1 inhibition assay. The experiment is classed as biochemical. To be noted: 10 μM.
Experiment [2] addresses T1, human recombinant LSD1. The following applies: previous studies ref 8; cited from earlier work.

Take `Cl.Cl.O=C(NCCCNCCCCCCNCCCNC(=O)NCc1ccccc1)NCc1ccccc1` [Compound 9d]: the “Effect on LSD1 activity” value on human recombinant LSD1 [1] is reported as “increase in the activity of LSD1”. For the compound `Cl.O=C(NCCCNCCCCCNCCCNC(=O)Nc1ccccc1)Nc1ccccc1` [Compound 7a, 1,13-bis-{3-[1-(phenyl)ureido]}-4,10-diazatridecane dihydrochloride], at human recombinant LSD1 [1], the “Effect on LSD1 activity” value is “increase in the activity of LSD1”. On to `CCCNC(=O)NCCCNCCCCCCNCCCNC(=O)NCCC.Cl.Cl` [Compound 9b], for which the “Effect on LSD1 activity” value on human recombinant LSD1 [1] is reported as “increase in the activity of LSD1”.

Turning to `CCNC(=O)NCCCNCCCCCCNCCCNC(=O)NCC.Cl.Cl` [Compound 9a], the “Effect on LSD1 activity” value at human recombinant LSD1 [1] is recorded as “increase in the activity of LSD1”. As to `Cl.N=C(NCCCNCCCCCCCNCCCNC(=N)NC(=N)NCCC(c1ccccc1)c1ccccc1)NC(=N)NCCC(c1ccccc1)c1ccccc1` [Compound 2, verlindamycin], the Mode of inhibition entry on human recombinant LSD1 [2] is reported as “non-competitive inhibitor”.
